The values that follow come from ChEMBL document CHEMBL3046493, “Alpha2-Adrenergic Receptors in Intestinal Epithelial Cells: Mechanisms of Signaling, Role, and Regulation” (Med Chem Res, 2004).

Molecules are shown by their SMILES.

As usually defined, the Ki is a dissociation constant, usually derived from enzyme kinetics or from competition with a known ligand. Read a high Ki as lower affinity.

The target of this assay is Nischarin (Rattus norvegicus, UniProt Q4G017). The experiment in a line: Binding affinity to I1 imidazoline binding site in Rattus norvegicus (rat) PC12 cells. The assay is classed as cell-based, PC-12.
Chain of Nischarin (Q4G017 whole entry): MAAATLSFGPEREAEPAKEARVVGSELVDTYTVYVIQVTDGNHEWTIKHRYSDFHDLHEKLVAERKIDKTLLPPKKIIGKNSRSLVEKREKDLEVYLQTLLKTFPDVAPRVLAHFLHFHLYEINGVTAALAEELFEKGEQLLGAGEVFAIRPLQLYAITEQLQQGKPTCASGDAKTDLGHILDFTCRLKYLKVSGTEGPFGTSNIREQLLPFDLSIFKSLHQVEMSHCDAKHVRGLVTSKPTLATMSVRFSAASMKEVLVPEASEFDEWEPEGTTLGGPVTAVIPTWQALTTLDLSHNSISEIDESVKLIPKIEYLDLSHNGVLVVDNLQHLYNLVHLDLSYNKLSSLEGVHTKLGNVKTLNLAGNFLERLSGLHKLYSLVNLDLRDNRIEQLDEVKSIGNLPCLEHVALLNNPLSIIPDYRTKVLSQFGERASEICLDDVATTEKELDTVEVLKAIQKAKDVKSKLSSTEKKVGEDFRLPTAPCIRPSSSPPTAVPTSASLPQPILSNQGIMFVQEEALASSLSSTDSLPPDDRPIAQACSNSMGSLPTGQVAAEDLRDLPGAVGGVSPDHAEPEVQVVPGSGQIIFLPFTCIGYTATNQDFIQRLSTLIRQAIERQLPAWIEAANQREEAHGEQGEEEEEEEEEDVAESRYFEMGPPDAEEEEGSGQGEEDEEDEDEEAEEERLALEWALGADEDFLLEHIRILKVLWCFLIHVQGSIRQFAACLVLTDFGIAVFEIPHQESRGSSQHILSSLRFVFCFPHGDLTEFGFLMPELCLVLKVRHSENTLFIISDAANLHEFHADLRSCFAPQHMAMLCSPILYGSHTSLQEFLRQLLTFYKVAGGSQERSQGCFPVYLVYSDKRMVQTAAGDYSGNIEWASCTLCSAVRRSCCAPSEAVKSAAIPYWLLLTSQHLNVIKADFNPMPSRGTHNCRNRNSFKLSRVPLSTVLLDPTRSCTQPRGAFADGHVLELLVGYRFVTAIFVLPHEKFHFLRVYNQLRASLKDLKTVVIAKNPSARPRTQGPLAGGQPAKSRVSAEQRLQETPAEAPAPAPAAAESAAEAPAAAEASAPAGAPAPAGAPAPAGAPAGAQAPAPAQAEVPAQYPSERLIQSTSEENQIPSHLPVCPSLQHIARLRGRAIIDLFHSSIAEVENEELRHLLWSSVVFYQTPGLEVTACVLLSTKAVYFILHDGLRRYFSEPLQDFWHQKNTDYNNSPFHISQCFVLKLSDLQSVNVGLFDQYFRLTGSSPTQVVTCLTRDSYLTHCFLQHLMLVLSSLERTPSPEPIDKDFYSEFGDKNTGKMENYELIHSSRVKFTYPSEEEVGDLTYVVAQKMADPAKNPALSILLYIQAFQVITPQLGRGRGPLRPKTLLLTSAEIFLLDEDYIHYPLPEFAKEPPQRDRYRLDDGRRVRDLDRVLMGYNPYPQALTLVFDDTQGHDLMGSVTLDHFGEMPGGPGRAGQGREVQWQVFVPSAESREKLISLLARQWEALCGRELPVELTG
On to `C[C@@H](Oc1ccccc1-c1ccccc1)C1=NCCN1`, for which the affinity, expressed as Ki, was 3.98 nM. That is a single-digit nanomolar value.

`c1ccc(C2CC2)c(OCC2=NCCN2)c1` [CIRAZOLINE]: the Ki is 1740 nM.

Consider `c1ccc(NCC2=NCCN2)cc1` [PHENAMAZOLINE], for which affinity was put at a Ki of 0.501 nM. For `C1CN=C(NC(C2CC2)C2CC2)C1` the value was 513 nM; for `Clc1cccc(Cl)c1N=C1NCCN1` [CLONIDINE], 112 nM; for `c1ccc(-c2ccccc2NCC2=NCCN2)cc1`, 0.933 nM. As for `c1ccc([C@@H]2C[C@H]2C2=NCCN2)cc1`, the figure is 347 nM; as for `Clc1cccc2c1CN(NC1=NCCN1)C2`, 6.92 nM; as for `C[C@@H](CC1=NCCN1)c1ccccc1`, 7240 nM. The compound `c1ccc2c(CC3=NCCN3)cccc2c1` [NAPHAZOLINE] gave a Ki of 245 nM. As for `Clc1cc(I)cc(Cl)c1N=C1NCCN1` [PI-CLONIDINE], the figure is 0.0339 nM; as for `c1ccc2cc(C3=NCCN3)ccc2c1` [BENAZOLINE], 1.29 nM; as for `C1COC(NC(C2CC2)C2CC2)=N1` [RILMENIDINE], 11.2 nM.

As to `c1ccc(-c2ccccc2CCC2=NCCN2)cc1`, the Ki was 3240 nM. As for `C[C@H](Oc1ccccc1-c1ccccc1)C1=NCCN1`, the figure is 129 nM; as for `c1ccc(CCC2=NCCN2)cc1` [PHENYZOLINE], 3720 nM; as for `C[C@H](CC1=NCCN1)c1ccccc1`, 589 nM. For `c1ccc(C(CC2=NCCN2)c2ccccc2)cc1` the value was 3090 nM; for `C(=C\c1ccccc1)/C1=NCCN1` [TRACIZOLINE], 18.6 nM.

Regarding `c1ccc(-c2ccccc2OCC2=NCCN2)cc1`, the Ki is 2.34 nM. Against the preceding compound, the Ki is about 7.9-fold lower. On to `c1ccc([C@H]2C[C@@H]2C2=NCCN2)cc1`, for which the Ki was 11.7 nM.
